A word on the solubility: it is how much of the substance goes into solution per volume. The low end stands for a poorly soluble substance, the high end for a readily soluble substance. The remaining activity is the signal under treatment as a percentage of the control signal. A lower remaining activity goes with a large loss of activity.

Values after ≈ are worked out from the molar mass of the structure shown.

The test system of data set [1] is human myelomonocytic, biphenotypic leukemia MV4-11 cells. The data set can be described thus: Growth inhibition test (MTS) on MV4-11 cells. The data set is classed as cell-based. Particulars: Homo sapiens, MV4-11, 72 hours, read-out: MV-4-11 ED50. An outline of the steps: MV4-
The subject of data set [2] is human erytroblast leukemia HEL-92.1.7 cells. Briefly: Growth inhibition test (MTS) on HEL-92.1.7 cells. The class given is cell-based. Particulars: 72 hours, read-out: HEL92 ED50. As to the method:
Ten thousand cells of human erytroblast leukemia HEL-92.1.7 were inoculated into each well of a 96-well microplate (manufactured by Corning Corp.) using RPMI 1640 medium (culture medium) containing 10% fetal calf serum (FCS). Next day, a dimethyl sulfoxide (DMSO) solution of each test compound prepared in a concentration of 10 mmol/L was further diluted with culture medium to the desired concentrations (0.1, 0.5, 1, 2.5, 5 and 10 micromol/L), and the diluted solution was added to each well. The individual wells were further cultured in 5% carbon dioxide at 37° C. for 72 hours. After completion of the culture, 10 μl MTS (3-(4,5-Dimethyl-2-thiazolyl)-5-(carboxymethoxyphenyl)-2-(4-sulfophenyl)-2H-tetrazolium, inner salt assay (CellTiter96® AQueous One Solution Cell Proliferation Assay, Promega) was added to each well, and culturing was performed in 5% carbon dioxide at 37° C. for 2 hours. Using a microplate spectrophotometer (Synergy 2 multi-mode microplate reader (BioTek)), the absorbance of each well was measured at 490 nm. The value for cells not incorporated with a test compound was designated as 100%. By comparing these values with the absorbance difference obtained at the well in which each test compound was added, the cell viability (% viability) after treatment with the test compound was calculated.

Data set [3] relates to human breast adenocarcinoma MCF7 cells. The data set can be described thus: Growth inhibition test (MTS) on MCF7 cells. The data set is classed as cell-based. Particulars: Homo sapiens, MCF7, 72 hours, read-out: MCF-7 ED50. An outline of the steps:
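MCF7 cells seeded in DMEM with 10% FCS, dosed next day at 0.1–10 micromol/L (diluted from 10 mmol/L DMSO stock) and cultured 72 h at 37° C, 5% CO2. MTS added for 2 h, absorbance read at 490 nm; % viability calculated relative to untreated cells as 100%.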

Data set [4] deals with tumors derived from MV4-11 cells xenografted in nude mice. The data set can be described thus: In vivo anticancer activity, MV4-11 xenograft. The settings on record: QD, PO; for TGI (%): 150 mg/kg, 21 days, MV4-11 xenograft in nude mice; for tumor growth inhibition (in words): after 21 days of treatment. As to the method: The anticancer activity of compounds 20, 359 and 416 was assessed on tumors derived from MV4-11 cells xenografted in nude mice. Mice were inoculated with 5*10^6 cells and the tumor volume was measured until it reached 100 mm^3. Throughout the whole study tumor volume has been measured (FIG. 2) and tumor growth inhibition (TGI) was calculated.

Data set [5] can be described thus: Solubility in phosphate buffer pH 7.4. The data set is classed as physicochemical. The settings on record: aqueous buffer, kinetic from dmso stock, pH 7.4, 24 hours at 37° C., 1% DMSO. The text has this: In general, tetrahalogenated benzimidazoles are poorly soluble compounds, what renders their chances for successful therapeutic administration in commonly used routes of administration and standard conditions. In contrast to previously published tetrabromobenzimidazoles exemplified by DMAT, certain compounds provided in the application show a markedly increase in water solubility. As solubility is one of the key parameters that influences compound pharmacokinetics, permeability and therefore also activity in vitro and in vivo, improved solubility of the selected compounds is a surprising feature that can lead to improved efficacy in treating PIM kinase associated disease conditions.

For data set [6], the target named is PKG1β(h) (Homo sapiens (Human), UniProt Q13976). Briefly: KinaseProfiler kinase panel. The data set is classed as biochemical.
Data set [7] concerns the target Lyn(m) (Mus musculus (Mouse), UniProt P25911). The data set can be described thus: KinaseProfiler kinase panel. The data set is classed as biochemical.
The subject of data set [8] is human acute lymphocytic leukemia E6.1 Jurkat cells. Briefly: Growth inhibition test (MTS) on E6.1 Jurkat cells. The data set is classed as cell-based. Particulars: 72 hours, read-out: Jurkat ED50.

Chain of PKG1β(h) (Q13976 other isoform, or with tags, fused parts or gaps): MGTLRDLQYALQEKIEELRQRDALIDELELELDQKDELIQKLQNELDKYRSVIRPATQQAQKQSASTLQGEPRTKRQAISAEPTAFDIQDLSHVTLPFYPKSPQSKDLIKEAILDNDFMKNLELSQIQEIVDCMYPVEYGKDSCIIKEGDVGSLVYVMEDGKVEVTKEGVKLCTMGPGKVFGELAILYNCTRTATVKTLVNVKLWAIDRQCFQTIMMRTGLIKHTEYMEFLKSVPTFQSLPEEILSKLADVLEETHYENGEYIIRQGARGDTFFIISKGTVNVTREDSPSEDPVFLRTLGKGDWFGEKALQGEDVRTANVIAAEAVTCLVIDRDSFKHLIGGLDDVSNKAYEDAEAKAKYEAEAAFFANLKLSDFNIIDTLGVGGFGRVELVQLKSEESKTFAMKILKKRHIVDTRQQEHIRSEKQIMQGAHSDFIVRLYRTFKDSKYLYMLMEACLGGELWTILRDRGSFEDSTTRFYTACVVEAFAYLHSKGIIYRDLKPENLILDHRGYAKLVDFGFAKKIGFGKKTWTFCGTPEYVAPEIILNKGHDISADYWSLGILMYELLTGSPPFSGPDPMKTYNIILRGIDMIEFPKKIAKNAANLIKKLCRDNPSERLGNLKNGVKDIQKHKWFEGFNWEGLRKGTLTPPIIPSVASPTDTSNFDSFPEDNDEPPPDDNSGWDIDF
Chain of Lyn(m) (P25911 whole entry): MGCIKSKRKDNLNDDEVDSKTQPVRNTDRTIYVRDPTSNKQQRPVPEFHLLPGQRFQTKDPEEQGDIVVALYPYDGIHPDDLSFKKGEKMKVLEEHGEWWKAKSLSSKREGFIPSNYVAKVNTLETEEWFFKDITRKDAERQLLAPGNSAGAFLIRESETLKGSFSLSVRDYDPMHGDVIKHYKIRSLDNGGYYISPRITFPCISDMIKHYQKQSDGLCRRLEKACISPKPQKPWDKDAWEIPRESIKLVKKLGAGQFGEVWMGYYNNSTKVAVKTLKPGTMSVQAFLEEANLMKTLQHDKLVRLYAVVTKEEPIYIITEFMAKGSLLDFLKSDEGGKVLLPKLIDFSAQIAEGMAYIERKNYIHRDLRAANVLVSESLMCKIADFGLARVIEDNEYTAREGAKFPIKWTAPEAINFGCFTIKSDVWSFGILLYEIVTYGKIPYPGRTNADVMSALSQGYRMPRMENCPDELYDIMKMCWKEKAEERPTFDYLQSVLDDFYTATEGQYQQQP

Regarding `Brc1c(Br)c(Br)c2[nH]c(N3CCNCC3)nc2c1Br` [Compound 20, 4,5,6,7-tetrabromo-2-(piperazin-1-yl)-1H-benzo[d]imidazole], the IC50 in data set [1] was determined as 0.48 µM; in data set [2], 6.04 µM; in data set [3], 2.47 µM. Also, in data set [4], the “TGI (%)” value is recorded as −57.8%. The “tumor growth inhibition (in words)” value in data set [4] is “most pronounced tumor growth inhibition”. The compound further gave a solubility at 24 h in data set [5] of 81 µM (≈ 41.9 µg/mL).

With `CC(C)n1c(N2CCNCC2)nc2c(Br)c(Br)c(Br)c(Br)c21` [Compound 359, 4,5,6,7-tetrabromo-1-isopropyl-2-(piperazin-1-yl)-1H-benzo[d]imidazole], the IC50 in data set [1] was determined as 0.6 µM; in data set [2] it was 3.85 µM; in data set [3] it was 1.6 µM. Further, in data set [4], the “TGI (%)” value is −84.7%. Further, the “tumor growth inhibition (in words)” value in data set [4] was “most pronounced tumor growth inhibition”.

Consider `CCn1c(N2CCNCC2)nc2c(Br)c(Br)c(Br)c(Br)c21` [Compound 416, 4,5,6,7-tetrabromo-1-ethyl-2-(piperazin-1-yl)-1H-benzo[d]imidazole], for which the IC50 in data set [1] was determined as 0.55 µM; in data set [2], 2.72 µM; in data set [3], 1.26 µM. Also, the “TGI (%)” value in data set [4] is −102.8%. The “tumor growth inhibition (in words)” value in data set [4] is on record as “most pronounced tumor growth inhibition”. The remaining activity at 1 µM amounted to 5% in data set [6] and 73% in data set [7].

For `CN(C)c1nc2c(Br)c(Br)c(Br)c(Br)c2[nH]1` [DMAT, 2-dimethylamino-4,5,6,7-tetrabromo-1H-benzimidazole, reference compound], the IC50 was 3.15 µM in data set [1], 8.18 µM in data set [8] and above 10 µM in data set [3]. In data set [5], this compound yielded a solubility at 24 h below 10 µM.

The values above are taken from patent publication US8604217B2, “Compound, a process for its preparation, a pharmaceutical composition, use of a compound, a method for modulating or regulating serine/threonine kinases and a serine/threonine kinases modulating agent” (Selvita S.A., priority 2009, dated 2013).
